We go through two compounds from US9023789B2, “Amylin analogs and pharmaceutical compositions thereof” (Novo Nordisk A/S, priority 2012, dated 2015).

Where two headings read alike, the source gives them in different places. Numbered stars: 1 amine (or outer) side, 2 acyl side, 3 side chain; on linkers, the order of the positions; unused ones are H or OH. Bridge positions count the residues as written; N and C are the ends. Side chains are listed from the residue outwards. Peptide text beside a SMILES is read from it. * marks the point of attachment. C20 diacid = O=C(O)CCCCCCCCCCCCCCCCCCC(=O)*; γGlu = O=C(O)[C@H](CCC(=O)[*:2])N[*:1]; AEEA = NCCOCCOCC(=O)O Where only a bound is given, the exact number is not on record here.

A short description of series [1]: ASSAY (IV) determination of solubility. It is filed as physicochemical. In a few lines:
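Polypeptide in water at […] mixed 1:1 with 100 mM buffers of pH 3.0-8.0 (glycylglycine pH 3-5, bistrispropane pH 6-8). Held 18 h at room temperature, then centrifuged; concentration remaining in solution measured by UPLC.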

The target of series [2] is T1, human amylin receptor (membranes from Amylin 3(a)/CRE-luc cells) (Homo sapiens, UniProt O60896+P30988).
T1 construct: expressed in transfected cells
T1 sequence (P30988 25-474): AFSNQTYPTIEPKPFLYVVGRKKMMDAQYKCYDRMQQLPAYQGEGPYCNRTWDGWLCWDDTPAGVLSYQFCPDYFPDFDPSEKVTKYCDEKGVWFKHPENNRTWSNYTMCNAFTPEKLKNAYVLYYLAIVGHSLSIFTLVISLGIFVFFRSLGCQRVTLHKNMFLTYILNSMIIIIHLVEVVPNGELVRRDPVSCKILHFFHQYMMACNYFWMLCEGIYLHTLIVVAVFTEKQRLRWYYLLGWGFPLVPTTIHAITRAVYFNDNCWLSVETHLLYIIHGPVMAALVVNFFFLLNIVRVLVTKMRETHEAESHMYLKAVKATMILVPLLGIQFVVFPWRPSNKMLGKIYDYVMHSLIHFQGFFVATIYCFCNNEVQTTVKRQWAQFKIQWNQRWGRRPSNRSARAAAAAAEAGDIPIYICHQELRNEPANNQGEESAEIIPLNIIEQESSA
T1 sequence (O60896 24-148 partner): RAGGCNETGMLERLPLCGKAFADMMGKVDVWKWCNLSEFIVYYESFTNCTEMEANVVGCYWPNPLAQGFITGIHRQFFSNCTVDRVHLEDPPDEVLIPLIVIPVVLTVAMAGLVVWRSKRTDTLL
As to the kind of experiment: ASSAY (V) binding to the human amylin receptor (SPA, 125I-rat amylin).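 On all read-outs here: competition binding of cell membranes (35 ng/µL) mixed with SPA beads in 384-well plates at 40 µL total volume, read by scintillation counting.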 The note with it: for IC50: Table 4, read-out: hAmylin-R bind IC50.

Another series addresses T2, rat calcitonin receptor (Rattus norvegicus, UniProt P32214).
T2 construct: expressed in transfected cells; host or cells: BHK tk'ts 13 (transient, FuGENE 6), membranes
T2 sequence (P32214 25-479 isoform P32214-2 limits assumed): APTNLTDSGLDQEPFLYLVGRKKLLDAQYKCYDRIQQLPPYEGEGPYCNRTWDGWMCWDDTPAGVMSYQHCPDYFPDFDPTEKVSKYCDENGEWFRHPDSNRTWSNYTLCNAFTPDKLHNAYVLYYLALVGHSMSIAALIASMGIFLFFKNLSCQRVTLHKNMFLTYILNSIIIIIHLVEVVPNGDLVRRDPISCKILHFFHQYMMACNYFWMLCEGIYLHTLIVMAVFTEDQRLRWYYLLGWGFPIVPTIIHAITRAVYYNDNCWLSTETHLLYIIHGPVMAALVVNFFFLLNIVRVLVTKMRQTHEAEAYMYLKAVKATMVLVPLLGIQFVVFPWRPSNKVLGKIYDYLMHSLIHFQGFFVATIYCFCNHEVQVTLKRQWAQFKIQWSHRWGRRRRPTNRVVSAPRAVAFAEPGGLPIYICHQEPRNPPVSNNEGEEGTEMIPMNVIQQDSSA
As to the kind of experiment: ASSAY (VIII) binding to the rat calcitonin receptor. Particulars: Table 7, read-out: rCTR bind IC50. The essentials: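 Membranes were prepared from BHK tk′ts 13 cells transiently transfected with rat calcitonin receptor. Cells were grown in DMEM with 10% FBS and harvested approximately 48 hours after transfection.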

A further series relates to Sprague Dawley (SD) rats. The experiment in a line: ASSAY (I) efficacy testing on appetite (food intake) using an ad libitum fed rat model. The class given is in vivo. Particulars: rat, 30 nmol/kg. In a few lines: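 Ad libitum fed SD rats (200–250 g) were housed singly on a reversed light/dark cycle and given one 0.01–3 mg/kg dose ip, po or sc just before lights-off, with 5–8 per dose group plus vehicle controls. Food intake was recorded hourly for 7 h, then at 24 h and sometimes 48 h; Grubbs outliers were excluded.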

Setting [3] is: bistrispropane buffer, pH 6.5, read-out: Solubility pH 6.5 Concentration.
Setting [4] is: bistrispropane buffer, pH 7.5, read-out: Solubility pH 7.5 Concentration.
The mark [5] stands for this setting: bistrispropane buffer, pH 6.0, read-out: Solubility pH 6.0 Concentration.
[6] abbreviates: bistrispropane buffer, pH 7.0, read-out: Solubility pH 7.0 Concentration.
Where [7] appears, read: bistrispropane buffer, pH 8.0, read-out: Solubility pH 8.0 Concentration.
[8] abbreviates: glycylglycine buffer, pH 3.0, read-out: Solubility pH 3.0 Concentration.
Setting [9] is: glycylglycine buffer, pH 4.0, read-out: Solubility pH 4.0 Concentration.
Setting [10] is: glycylglycine buffer, pH 5.0, read-out: Solubility pH 5.0 Concentration.
Where [11] appears, read: Table 5, selectivity, hCTR bind IC50 / hAmylin-R bind IC50.
[12] abbreviates: Table 5a, selectivity, hCTR bind IC50 / hAmylin-R bind IC50.
The mark [13] stands for this setting: Table 5b, selectivity, hCTR bind IC50 / hAmylin-R bind IC50.
Where [14] appears, read: Table 5c, selectivity, hCTR bind IC50 / hAmylin-R bind IC50.
[15] abbreviates: Table 7, human binding selectivity, included for comparison.
Setting [16] is: Table 7a (preferred compounds), human binding selectivity, included for comparison.
Setting [17] is: ratio of human calcitonin receptor binding IC50 to human amylin receptor binding IC50.

As to `CC[C@H](C)[C@H](NC(=O)[C@H](C)NC(=O)CNC(=O)[C@H](Cc1ccccc1)NC(=O)[C@H](CC(N)=O)NC(=O)[C@@H]1CCCN1C(=O)[C@H](CO)NC(=O)[C@H](CO)NC(=O)[C@H](Cc1c[nH]cn1)NC(=O)[C@H](CCCNC(=N)N)NC(=O)[C@H](CC(C)C)NC(=O)[C@H](Cc1ccccc1)NC(=O)[C@H](Cc1c[nH]cn1)NC(=O)[C@H](C)NC(=O)[C@H](CC(C)C)NC(=O)[C@H](CCCNC(=N)N)NC(=O)[C@H](CCC(N)=O)NC(=O)[C@@H](NC(=O)[C@H](C)NC(=O)[C@@H]1CSSC[C@H](NC(=O)[C@@H](N)CCCCNC(=O)CC[C@H](NC(=O)CCCCCCCCCCCCCCCCCCC(=O)O)C(=O)O)C(=O)N[C@@H](CC(N)=O)C(=O)N[C@@H]([C@@H](C)O)C(=O)N[C@@H](C)C(=O)N[C@@H]([C@@H](C)O)C(=O)N1)[C@@H](C)O)C(=O)N1CCC[C@H]1C(=O)N[C@@H](CO)C(=O)N[C@@H](CO)C(=O)N[C@H](C(=O)N[C@@H](CC(N)=O)C(=O)N[C@H](C(=O)NCC(=O)N[C@@H](Cc1c[nH]cn1)C(=O)N[C@@H](CC(N)=O)C(=O)N[C@H](C(=O)N[C@@H](Cc1ccc(O)cc1)C(N)=O)[C@@H](C)O)C(C)C)[C@@H](C)O` [Example 81] (H-K([γGlu-C20 diacid])CNTATCATQRLAHFLRHSSPNFGAIPSSTNVGHNTY-NH2; disulfide 2-7; N-terminus assumed), the solubility at 18 h in series [1] (setting [3]), in series [1] (setting [4]), in series [1] (setting [5]), in series [1] (setting [6]), in series [1] (setting [7]) and in series [1] (setting [8]) was at least 200 µM throughout. Moreover, the solubility at 18 h in series [1] (setting [9]) and in series [1] (setting [10]) was at least 200 µM in each case. In addition, the figures for the IC50 (in series [2]; on rat calcitonin receptor) were 0.271 nM and 61.1 nM, respectively. Besides, the “Ratio hCT/hAmylin binding” value in series [2] (setting [11]), in series [2] (setting [12]), in series [2] (setting [13]), in series [2] (setting [14]), in series [2] (setting [15]) and in series [2] (setting [16]) was 87.2 each time. The “Ratio hCT/hAmylin binding” value in series [2] (setting [17]) is reported as 87.2. The “Food intake reduction 0-24 h 30 nmol/kg (%)” value with Sprague Dawley (SD) rats was determined as 40%. Moreover, the “Food intake reduction 24-48 h 30 nmol/kg (%)” value with Sprague Dawley (SD) rats is given as 3%.

As to `CC[C@H](C)[C@H](NC(=O)[C@H](C)NC(=O)CNC(=O)[C@H](Cc1ccccc1)NC(=O)[C@H](CC(N)=O)NC(=O)[C@@H]1CCCN1C(=O)[C@H](CO)NC(=O)[C@H](CO)NC(=O)[C@H](Cc1c[nH]cn1)NC(=O)[C@H](CCCNC(=N)N)NC(=O)[C@H](CC(C)C)NC(=O)[C@H](Cc1ccccc1)NC(=O)[C@H](CC(N)=O)NC(=O)[C@H](C)NC(=O)[C@H](CC(C)C)NC(=O)[C@H](CCCNC(=N)N)NC(=O)[C@H](CCC(N)=O)NC(=O)[C@@H](NC(=O)[C@H](C)NC(=O)[C@@H]1CSSC[C@H](NC(=O)[C@@H](N)CCCCNC(=O)COCCOCCNC(=O)COCCOCCNC(=O)CC[C@H](NC(=O)CCCCCCCCCCCCCCCCCCC(=O)O)C(=O)O)C(=O)N[C@@H](CC(N)=O)C(=O)N[C@@H]([C@@H](C)O)C(=O)N[C@@H](C)C(=O)N[C@@H]([C@@H](C)O)C(=O)N1)[C@@H](C)O)C(=O)N1CCC[C@H]1C(=O)N[C@@H](CO)C(=O)N[C@@H](CO)C(=O)N[C@H](C(=O)N[C@@H](CC(N)=O)C(=O)N[C@H](C(=O)NCC(=O)N[C@@H](CCCNC(=N)N)C(=O)N[C@@H](CC(N)=O)C(=O)N[C@H](C(=O)N[C@@H](Cc1ccc(O)cc1)C(N)=O)[C@@H](C)O)C(C)C)[C@@H](C)O` [Example 95] (H-K([AEEA-AEEA-γGlu-C20 diacid])CNTATCATQRLANFLRHSSPNFGAIPSSTNVGRNTY-NH2; disulfide 2-7 (inferred); N-terminus assumed), the solubility at 18 h in series [1] (setting [3]), in series [1] (setting [4]), in series [1] (setting [5]), in series [1] (setting [6]), in series [1] (setting [7]) and in series [1] (setting [8]) was at least 200 µM throughout. The solubility at 18 h in series [1] (setting [9]) and in series [1] (setting [10]) was at least 200 µM throughout. For the same compound, the IC50 in series [2] was determined as 0.967 nM; on rat calcitonin receptor, 389 nM. The “Ratio hCT/hAmylin binding” value in series [2] (setting [11]), in series [2] (setting [12]), in series [2] (setting [13]), in series [2] (setting [14]), in series [2] (setting [15]) and in series [2] (setting [16]) was 63.4 in each case. The “Ratio hCT/hAmylin binding” value in series [2] (setting [17]) is listed as 63.4. Further, the “Food intake reduction 0-24 h 30 nmol/kg (%)” value with Sprague Dawley (SD) rats came to 22%. Moreover, the “Food intake reduction 24-48 h 30 nmol/kg (%)” value with Sprague Dawley (SD) rats is listed as 0%.

A word on the IC50: it is the concentration that inhibits the measured activity by half.
